From ChEMBL document CHEMBL1159048, “Asymmetric syntheses of daedalin A and quercinol and their tyrosinase inhibitory activity” (Bioorg Med Chem Lett, 2010)

Assays:
Tyrosinase = target: T1, Tyrosinase (Agaricus bisporus, UniProt O42713); assay: Inhibition of mushroom tyrosinase
T1 sequence (O42713 whole entry): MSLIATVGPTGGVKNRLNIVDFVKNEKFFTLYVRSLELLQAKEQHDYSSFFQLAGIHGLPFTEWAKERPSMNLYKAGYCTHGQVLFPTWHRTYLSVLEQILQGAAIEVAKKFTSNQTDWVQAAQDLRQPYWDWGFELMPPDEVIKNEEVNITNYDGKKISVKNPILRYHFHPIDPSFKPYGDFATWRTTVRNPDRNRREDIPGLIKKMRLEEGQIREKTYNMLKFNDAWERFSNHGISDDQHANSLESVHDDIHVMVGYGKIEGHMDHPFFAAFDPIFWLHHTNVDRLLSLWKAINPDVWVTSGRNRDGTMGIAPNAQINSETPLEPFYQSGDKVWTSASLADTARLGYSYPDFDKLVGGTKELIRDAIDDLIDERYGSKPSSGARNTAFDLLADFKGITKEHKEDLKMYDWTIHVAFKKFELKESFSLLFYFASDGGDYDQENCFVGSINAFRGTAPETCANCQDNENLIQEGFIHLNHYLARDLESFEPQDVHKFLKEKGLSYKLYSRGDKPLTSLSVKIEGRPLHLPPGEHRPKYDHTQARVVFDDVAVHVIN

[1] = target: T2, Tyrosinase (Agaricus bisporus) (UniProt O42713); assay: Inhibition of mushroom tyrosinase at 100 uM
T2 sequence (whole entry): T1 sequence (O42713 whole entry)

[2] = target: T2, Tyrosinase (Agaricus bisporus); assay: Inhibition of mushroom tyrosinase at 400 uM
[3] = target: T2, Tyrosinase (Agaricus bisporus); assay: Inhibition of mushroom tyrosinase at 200 uM

C[C@]1(CO)C=Cc2cc(O)ccc2O1 [DAEDALIN A] gave an IC50 (Tyrosinase) of 208 µM, an inhibition [1] of 28.6% and an inhibition [2] of 61.6%. For the same compound, the inhibition [3] was 48.4%.
